Test results reported in publication PMC11393688, “Design and synthesis of new 1,2,4-oxadiazole/quinazoline-4-one hybrids with antiproliferative activity as multitargeted inhibitors” (Frontiers in Chemistry, 2024).

Legend:
[1] = target: EGFR^T790M (Homo sapiens, UniProt P00533, T790M); assay: EGFR^T790M inhibitory assay (HTRF KinEASE-TK)
[2] = system: breast cancer (MCF-7) cell line; assay: Antiproliferative MTT assay, MCF-7; assay type: cell-based; details: Homo sapiens, MCF7, MCF-7 breast cancer cells, read-out: Antiproliferative activity IC50 ± SEM MCF-7
Experimental: (§1) 4.2.1.2. Assay for antiproliferative effect
(§2) To explore the antiproliferative potential of compounds MTT assay was performed according to previously reported procedure using different cell lines to explore the antiproliferative potential of […]
(§3) calculate the total nuclear DNA, a fluorescent dye (propidium iodide, PI) is used which can attach to the DNA, thus offering a quick and precise technique. PI cannot pass through the cell membrane and its signal intensity can be considered as directly proportional to quantity of cellular DNA.
(§4) Cells whose cell membranes are damaged or have changed permeability are counted as dead ones.
(§5) The assay was performed by seeding the cells of different cell lines at a density of 3000-7500 cells/well (in 200µl medium) in culture plates followed by incubation for 24h at 37 °C in humidified 5% CO2/95% air atmospheric conditions. The medium was removed; the compounds were added to the plates at 10 µM concentrations (in 0.1% DMSO) in triplicates, followed by incubation for 48 h. DMSO (0.1%) was used as control. After incubation, medium was removed […]
(§6) 80 °C, the plates were allowed to freeze for 24 h, followed by thawing at 25 °C. […]
(§7) (Polar-Star BMG Tech) was used to record the readings at excitation and emission wavelengths of 530 and 620 nm for each well. The percentage cytotoxicity of compounds was calculated using […]
(§8) Where ATC= Absorbance of treated cells and AC= Absorbance of control. Erlotinib was used as positive control in the assay.

[3] = system: four human cancer cell lines (HT-29, Panc-1, A-549, MCF-7); assay: Average antiproliferative activity (GI50) over four cancer cell lines; assay type: cell-based; details: average IC50 against the four cancer cell lines
Experimental: as §1, §2, §3, §4, §5, §6, §7, §8

[4] = target: T1, EGFR (Homo sapiens, UniProt P00533); assay: EGFR-TK inhibitory assay; assay type: biochemical; details: read-out: EGFR inhibition IC50 ± SEM
T1 construct: amino acids 645–1186; His6 (N); made in house; host or cells: Sf-9 insect cells (baculovirus; pBlueBacHis2B / pFASTBacHTc)
Experimental: 4.2.1.3. EGFR inhibitory assay
Sf-9 cells were infected for 72h for protein expression. […]
centrifugation for 20 min.
Histidine-linked proteins were first eluted with 250 and then […]
using wash buffer. Europium-tagged antiphosphotyrosine antibody (75 µL, 400 ng) was added to each well followed by incubation of 1h and then washing of the plates using buffer. The enhancement solution was added to each well and the signal was recorded at excitation and […]
The autophosphorylation percentage inhibition by compounds was calculated using the following equation: […]
(1 picture or pasted object on this page, not shown here)

[5] = system: A-549 cells; assay: Apoptosis induction assay, Annexin V/PI flow cytometry; assay type: cell-based, human; details: A-549, Annexin V/PI, 24 h
Experimental: To assess 9b′s potential to induce apoptosis, A-549 cells were labeled with Annexin V/PI, grown for 24 h, and evaluated.
Compound 9b was investigated for its effects on cell cycle progression and apoptosis induction in A-549 cells. […] The cell line was labeled with PI/Annexin V, and flow cytometry was done with a BD FASC Caliber ([El-Sherief et al., 2018]). See Supplementary Appendix A for more details. […]
served as positive control. To study the effect of compounds on cell-based pERK1/2 activity in cancer cells, commercially available ELISA kits (Invitrogen) were used according to manufacturer’s instructions.
4.2.1.6. Cell apoptosis assay
Apoptosis was determined by flow cytometry based on the Annexin-V-fluoresce in isothiocyanate (FITC) and propidium iodide (PI) staining kit (BD Pharmingen, San Diego, USA).
(FITC) and propidium iodide (PI) staining kit (BD Pharmingen, San Diego, USA). Apoptotic cells were defined as Annexin-V-positive. Cells were grown to approximately ∼70% confluence and exposed to different concentrations of compounds (0, 2, 4, 6 and8 μmol/L) for 24 h. […] Subsequently, cells were analyzed by flow cytometry (Becton Dickinson, Franklin Lakes, and USA). […]
Computerized Prism 5 program was used to statistically analyzed data using one-way ANOVA test followed by Tukey’s as post ANOVA for multiple comparison at P ≤.05. […]

[6] = system: lung cancer (A-549) cell line; assay: Antiproliferative MTT assay, A-549; assay type: cell-based; details: Homo sapiens, A549, A-549 lung cancer cells, read-out: Antiproliferative activity IC50 ± SEM A-549
Experimental: as §1, §2, §3, §4, §5, §6, §7, §8

[7] = Cell viability, MTT test on normal cell line; assay type: cell-based; details: human, MCF-10A mammary gland epithelial cells (normal cell line), MCF-10A normal cells, 4 days incubation
Experimental: The human mammary gland epithelial (MCF-10A) normal cell line was used to test the viability of novel compounds 9a-o ([Mahmoud et al., 2022]; [Mekheimer et al., 2022]). After 4 days of incubation on MCF-10A cells, the cell viability of compounds 9a-o was determined using the MTT test.
The human mammary gland epithelial (MCF-10A) normal cell line was used to test the viability of compounds 9a-o ([Mahmoud et al., 2022]; [Mekheimer et al., 2022]). Refer to Supplementary Appendix A (Supplementary Material) for more details.
4.2. Biological evaluation
4.2.1. Cytotoxic activity using MTT Assay and evaluation of IC50
MTT assay was carried out to study the effect of compounds on mammary epithelial cells (MCF-10A). The medium in which cells were propagated contained Dulbecco's modified Eagle's medium (DMEM)/ Ham's F-12 medium (1:1) supplemented with epidermal growth factor (20 ng/mL), hydrocortisone (500 ng/mL), insulin (10 μg/mL), 2 mM glutamine and 10% foetal calf serum.
After every 2-3 days, the cells were passaged using trypsin ethylenediamine tetra acetic acid (EDTA). The cells were seeded at a density of 10^4 cells mL-1 in flat-bottomed culture plates containing 96 wells each. After 24 h, medium was removed from the plates and the compounds in (in 0.1% DMSO) were added (in 200 μL medium to yield a final concentration of 0.1% v/v) to the wells of plates. A single compound was designated with four wells followed by incubation of plates for 96h at 37°C. After incubation, medium was removed completely from the plates followed by addition of MTT (0.4 mg/mL in medium) to each well and subsequent incubation of plates for 3h. MTT (along with the medium) was removed and DMSO (150μL) was added to each well of the culture plates, followed by vertexing and subsequent measurement of absorbance (at 540 nm) using microplate reader. The data are shown as percentage inhibition of proliferation in comparison with controls containing 0.1% DMSO.

[8] = system: pancreatic cancer (Panc-1) cell line; assay: Antiproliferative MTT assay, Panc-1; assay type: cell-based; details: Homo sapiens, Panc-1 pancreatic cancer cells, read-out: Antiproliferative activity IC50 ± SEM Panc-1
Experimental: as §1, §2, §3, §4, §5, §6, §7, §8

Sequence of EGFR^T790M (P00533 25-1210 T790M): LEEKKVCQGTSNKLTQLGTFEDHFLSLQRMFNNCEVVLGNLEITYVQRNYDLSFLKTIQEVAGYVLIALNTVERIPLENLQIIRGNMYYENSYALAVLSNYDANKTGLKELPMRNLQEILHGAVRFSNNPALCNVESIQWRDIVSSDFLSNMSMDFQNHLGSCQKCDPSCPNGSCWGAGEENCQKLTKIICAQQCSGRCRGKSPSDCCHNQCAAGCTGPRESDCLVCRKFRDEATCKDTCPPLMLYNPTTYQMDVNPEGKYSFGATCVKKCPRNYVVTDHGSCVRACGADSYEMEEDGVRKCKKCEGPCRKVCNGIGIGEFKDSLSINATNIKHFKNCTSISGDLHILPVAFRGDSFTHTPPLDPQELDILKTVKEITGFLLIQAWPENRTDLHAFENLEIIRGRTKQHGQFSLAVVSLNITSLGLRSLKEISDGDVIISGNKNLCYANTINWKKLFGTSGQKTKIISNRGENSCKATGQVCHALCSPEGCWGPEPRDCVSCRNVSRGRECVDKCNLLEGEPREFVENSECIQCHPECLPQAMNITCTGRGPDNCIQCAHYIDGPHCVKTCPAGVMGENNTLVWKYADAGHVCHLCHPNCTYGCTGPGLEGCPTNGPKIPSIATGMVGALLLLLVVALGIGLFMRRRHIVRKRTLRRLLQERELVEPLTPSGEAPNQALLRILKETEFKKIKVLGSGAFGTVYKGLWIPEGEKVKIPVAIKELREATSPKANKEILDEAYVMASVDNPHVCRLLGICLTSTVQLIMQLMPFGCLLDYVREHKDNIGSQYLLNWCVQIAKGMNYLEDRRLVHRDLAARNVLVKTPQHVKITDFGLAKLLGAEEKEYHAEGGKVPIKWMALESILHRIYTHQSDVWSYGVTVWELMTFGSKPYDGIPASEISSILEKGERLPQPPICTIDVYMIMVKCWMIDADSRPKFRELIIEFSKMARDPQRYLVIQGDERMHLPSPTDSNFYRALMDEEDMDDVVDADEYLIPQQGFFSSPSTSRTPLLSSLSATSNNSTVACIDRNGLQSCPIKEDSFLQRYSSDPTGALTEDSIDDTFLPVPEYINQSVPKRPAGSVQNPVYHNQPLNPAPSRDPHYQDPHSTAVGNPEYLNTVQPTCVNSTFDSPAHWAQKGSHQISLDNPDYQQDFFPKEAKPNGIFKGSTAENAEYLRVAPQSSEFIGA
T1 sequence (P00533 669-1210): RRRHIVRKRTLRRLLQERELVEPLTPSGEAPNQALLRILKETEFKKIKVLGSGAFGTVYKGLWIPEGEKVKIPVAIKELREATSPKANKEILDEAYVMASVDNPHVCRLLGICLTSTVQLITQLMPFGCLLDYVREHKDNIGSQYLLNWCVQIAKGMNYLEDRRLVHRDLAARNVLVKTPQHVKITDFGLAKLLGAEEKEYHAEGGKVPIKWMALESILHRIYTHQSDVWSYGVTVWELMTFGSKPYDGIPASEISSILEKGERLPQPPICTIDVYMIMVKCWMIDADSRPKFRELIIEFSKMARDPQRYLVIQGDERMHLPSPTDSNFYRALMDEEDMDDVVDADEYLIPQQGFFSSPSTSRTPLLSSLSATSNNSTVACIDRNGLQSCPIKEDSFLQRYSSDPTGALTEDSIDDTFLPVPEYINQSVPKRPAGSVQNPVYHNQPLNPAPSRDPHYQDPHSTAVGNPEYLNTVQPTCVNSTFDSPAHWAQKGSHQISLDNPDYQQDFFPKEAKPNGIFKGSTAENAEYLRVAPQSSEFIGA

With `O=c1c2ccccc2nc(SCc2nc(-c3ccc(Cl)cc3)no2)n1-c1ccccc1` [Compound 9b, 2-((3-(4-Chlorophenyl)-1,2,4-oxadiazol-5-yl)methylthio)-3 phenylquinazolin-4(3H)-one] the IC50 [1] was 10 ± 1 nM, the IC50 [2] was 26 ± 2 nM and the GI50 [3] was 24 nM. The IC50 [4] was 57 ± 4 nM, the Necrosis percentage [5] was 6.43% and the IC50 [6] was 22 ± 2 nM. The viability at 96 h, 50 µM [7] was 89% and the IC50 [8] was 24 ± 2 nM.
